{"source": "patent US20190160152A1", "about": "(OPKO BIOLOGICS LTD., priority 2016, published 2019)", "key": {"[1]": {"test": "ob/ob mouse model Study 3: MOD-6031 vs PEG30-Fmoc-OXM vs PEG30-EMCS-OXM", "type": "in vivo, male ob/ob mice", "quoted_text": "Forty-two male ob/ob mice (7 weeks of age, Charles River, Italy) were acclimatized to the facility (10 days) followed by handling protocol whereby animals were handled as if to be dosed but were actually not weighed or dosed. Subsequently, animals underwent baseline period for 1 week in which each animal have been dosed twice by the subcutaneous route with PEG30-SH in volume of 20 ml/kg. Body weight, food and water intake were recorded daily, and samples were taken for non-fasting and fasting glucose measurements and non-fasting and fasting insulin measurements. Animals were subsequently allocated into three treatment, control and pair-fed groups (group A, N=10, groups B-E, N=8) based on plasma glucose, body weight and daily food and water intake. […] It was given the daily food ration equal to that eaten by its paired counterpart in group B the previous day. As such, animals in Group E will be one day out of phase with Group B in all study procedures and measurements. During the study, animals were dosed every four days (days: 1, 5, 9, 13, 17, 21, 25 and 29) as describes in table 3. […] Several procedures and sampling have been performed: non-fasting glucose on days 1, 6, 14, 22 and 29, fasting glucose on days 10, 18 and 26. On days 2 and 30 fasting glucose samples have been taken as part of an OGTT procedure, in which insulin was measured in parallel to glucose. Terminal samples on day 33 were analyzed for cholesterol, triglycerides and fructosamine."}, "[2]": {"test": "ob/ob mouse model Study 1: PEG30-S-MAL-FMS-OXM variants at 2000 nmol/kg", "type": "in vivo, male ob/ob mice", "details": "2000 nmol/kg sc, days 1, 5, 9, 13 and 16", "protocol": "Terminal samples on day 19 were analyzed for cholesterol."}, "[3]": {"test": "IP glucose tolerance test (IPGTT model)", "type": "in vivo, C57BL/6 male mice"}, "[4]": {"test": "Syringability analysis (Instron, glide force)", "type": "physicochemical", "details": "25 Ga Needle; 9 in/min (16 sec)", "protocol": "Syringeability was tested using an Instron instrument, model 5942. […] […] For each needle size, two speed rates were measured: 4.8 in/min and 9 in/min, which correspond to injection speeds of 1 ml per 30 sec and 16 sec, respectively.\nIn one case, acceptance criteria for syringability was set at <10 N (glide force). The results of syringability for two different formulations of an acetate based buffer and using three different gauge needles is presented in Table 29 below."}, "[5]": {"details": "6000 nmol/kg sc every four days"}, "[6]": {"details": "6000 nmol/kg, glucose 2 g/kg po"}, "[7]": {"details": "blood glucose, 100 nmol/kg peptide content IP 15 min prior to glucose 1.5 gr/kg IP"}, "[8]": {"details": "control PEG-SH, 100 nmol/kg peptide content IP"}}, "data": [{"substance": "PEG30-Fmoc-OXM (HSQGTFTSDYSKYLDSRRAQDFVQWLMNTKRNRNNIA; Oxyntomodulin PEG30 via Fmoc linker; UniProt P01275 53-89, looked up)", "values": [{"measurement": "Final reduction changes in body weight (on day 33) compared to control (PEG-SH)", "setting": "[1]; [5]", "result": 5.1, "unit": "%"}, {"measurement": "fasting glucose (in words)", "setting": "[1]; [5]", "result": "significant improvement"}, {"measurement": "reduction change in body weight compared to its pair-fed group", "setting": "[1]; 6000 nmol/kg sc every four days, insignificant", "result": 2.6, "unit": "%"}, {"measurement": "terminal plasma lipidic profiles and fructosamine (in words)", "setting": "[1]; 6000 nmol/kg, day 33", "result": "significant reduction"}, {"measurement": "glucose profile, Day 30 OGTT (in words)", "setting": "[1]; [6]", "result": "significant improved glucose profile"}, {"measurement": "glucose tolerance, day 2 OGTT (in words)", "setting": "[1]; [6]", "result": "significantly improved glucose tolerance"}]}, {"substance": "MOD-6030: heterogeneous mixture of PEG-S-MAL-FMS-OXM conjugate composed of three variants (N-terminal, Lys12 and Lys30) (HSQGTFTSDYSKYLDSRRAQDFVQWLMNTKRNRNNIA; Oxyntomodulin PEG30-S-MAL-FMS, mixed N-term/Lys12/Lys30; UniProt P01275 53-89, looked up)", "values": [{"measurement": "final reduction of body weight (on day 18) compared to vehicle (PEG-SH) group", "setting": "[2]", "result": 4.7, "unit": "%"}, {"measurement": "AUC (0-180)", "setting": "[3]; [7]", "result": 13541}, {"measurement": "AUC (−60-180)", "setting": "[3]; [7]", "result": 18200}, {"measurement": "% AUC from control, AUC (0-180)", "setting": "[3]; [8]", "result": 60.1, "unit": "%"}, {"measurement": "% AUC from control, AUC (−60-180)", "setting": "[3]; [8]", "result": 67.8, "unit": "%"}]}, {"substance": "certolizumab pegol [Cimzia]", "values": [{"measurement": "Break Loose Force", "setting": "[4]", "result": 6.28, "unit": "N"}, {"measurement": "Glide Force", "setting": "[4]", "result": 27.94, "unit": "N"}]}]}
